Data on six compounds can be found in ChEMBL document CHEMBL1148597, “New tyrosinase inhibitors selected by atomic linear indices-based classification models” (Bioorg Med Chem Lett, 2006).

The target of the assay is T1, Tyrosinase (Homo sapiens, UniProt P14679).
T1 sequence (P14679 whole entry): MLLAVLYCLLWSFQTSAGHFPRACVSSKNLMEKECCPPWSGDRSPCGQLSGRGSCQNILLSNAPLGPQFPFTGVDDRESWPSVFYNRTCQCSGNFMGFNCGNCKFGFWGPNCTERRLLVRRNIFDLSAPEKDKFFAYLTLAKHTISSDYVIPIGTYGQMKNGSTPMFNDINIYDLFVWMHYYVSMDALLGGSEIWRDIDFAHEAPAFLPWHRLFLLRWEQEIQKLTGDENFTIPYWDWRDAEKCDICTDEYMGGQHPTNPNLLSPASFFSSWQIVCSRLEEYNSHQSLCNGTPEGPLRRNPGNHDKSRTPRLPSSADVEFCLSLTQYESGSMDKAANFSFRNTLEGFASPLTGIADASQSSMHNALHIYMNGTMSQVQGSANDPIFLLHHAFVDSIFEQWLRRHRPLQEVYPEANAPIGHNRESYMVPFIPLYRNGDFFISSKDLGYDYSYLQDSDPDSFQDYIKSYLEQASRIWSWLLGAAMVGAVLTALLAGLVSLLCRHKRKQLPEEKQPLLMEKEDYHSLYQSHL
Kind of assay: Inhibitory activity against tyrosinase.

Regarding `CC(=O)O[C@@H]1[C@@H](O[C@@H]2OC[C@H](O)[C@H](O)[C@H]2O)[C@H](O[C@H]2CC[C@]34C[C@]35CC[C@]3(C)[C@@H]([C@@]6(C)CC[C@H](C(C)(C)O)O6)[C@@H](O)C[C@@]3(C)[C@@H]5C[C@H](O[C@@H]3OC[C@@H](O)[C@H](O)[C@H]3O)[C@H]4C2(C)C)OC[C@H]1O` [ASKENDOSIDE B], the IC50 (usually the concentration at which inhibition is half-maximal) worked out at 13.9 µM.

In the case of `C[C@@H]1O[C@@H](O[C@H]2C[C@@H]3[C@]4(CC[C@]5(C)[C@@H]([C@@]6(C)CC[C@@H](C(C)(C)O)O6)[C@@H](O)C[C@@]35C)C[C@@]43CC[C@H](O[C@@H]4OC[C@@H](O)[C@H](O)[C@H]4O)C(C)(C)[C@H]23)[C@H](O)[C@H](O)[C@H]1O` [CYCLOCARPOSIDE], the half-inhibitory concentration (IC50) was 102 µM.

In turn, `CC(C)(O)[C@@H]1CC[C@](C)([C@H]2[C@@H](O)C[C@@]3(C)[C@@H]4C[C@H](O[C@H]5O[C@@H](CO)[C@H](O)[C@H](O)[C@@H]5O)[C@H]5C(C)(C)[C@@H](O[C@@H]6OC[C@@H](O)[C@H](O)[C@H]6O)CC[C@@]56C[C@@]46CC[C@]23C)O1` [CYCLOSIEVERSIOSIDE] displayed a half-maximal inhibitory concentration (IC50) of 92.3 µM.

In turn, `CC(C)(O)[C@@H]1CC[C@](C)([C@H]2[C@@H](O)C[C@@]3(C)[C@@H]4C[C@H](O[C@@H]5OC[C@@H](O)[C@H](O)[C@H]5O)[C@H]5C(C)(C)[C@@H](O[C@@H]6OC[C@@H](O)[C@H](O)[C@H]6O[C@@H]6OC[C@H](O)[C@H](O)[C@H]6O)CC[C@@]56C[C@@]46CC[C@]23C)O1` [ASKENDOSIDE D] came in with a 50% inhibitory concentration (IC50) of 48.9 µM.

Compound `CC(C)(O)CCC(=O)[C@@](C)(O)[C@H]1[C@H](O)C[C@@]2(C)[C@@H]3CC=C4[C@@H](C=C(O[C@@H]5O[C@H](CO)[C@@H](O)[C@H](O)[C@H]5O)C(=O)C4(C)C)[C@]3(C)C(=O)C[C@]12C` [BRYOAMARIDE] returned an IC50 of 85 µM.

Regarding `C[C@@H]1C[C@H]2O[C@]3(C[C@@]4(C)[C@@H]5[C@@H](O)C[C@H]6C(C)(C)[C@@H](O[C@@H]7OC[C@@H](O)[C@H](O)[C@H]7O)CC[C@@]67C[C@@]57CC[C@]4(C)[C@@H]13)O[C@@H]2C(C)(C)O[C@@H]1O[C@H](CO)[C@@H](O)[C@H](O)[C@H]1O` [CYCLOORBICOSIDE G], half-maximal inhibition (IC50) was put at 54.6 µM.
